≈ marks a conversion by molar mass, not a printed value. Read-outs that look alike come from different tables or passages of the source.
Assays:
[1] = system: NO production by LPS-stimulated RAW 264.7 macrophages; test: Inhibition of NO production by LPS-stimulated macrophages (Griess); assay type: cell-based, murine; conditions: mean ± SD, n = 3
[2] = system: TNF-α production by LPS-stimulated RAW 264.7 macrophages; test: Inhibition of TNF-α production by LPS-stimulated macrophages (ELISA); assay type: cell-based, murine; conditions: for IC50: Mus musculus, read-out: IC50 TNF-α
[3] = Macrophage cytotoxicity, LDH release assay; assay type: cell-based, murine; conditions: mouse, RAW 264.7 macrophages stimulated with LPS; LPS-stimulated RAW 264.7, LDH release; mean ± SD, n = 3
Procedure: (§4) Cytotoxic effects of chalcone samples on RAW 264.7 cell viability in cultures stimulated with LPS were determined using the LDH (lactate dehydrogenase) release assay as previously described [58]. Cytoplasmic enzyme LDH release into cell culture supernatants was detected using a commercial LDH kit (Doles, GO, Brazil). Cell death was expressed as percentage of LDH release, which was calculated using the following formula: percentage of LDH release = 100 × (test LDH release − spontaneous release)/(maximum release − spontaneous release). The maximum release was determined following dissolution of cell monolayers using 1% (vol/vol) Triton X-100. The spontaneous release was determined in supernatants from cultures incubated in the presence of LPS and DMSO, used as a solvent for chalcone samples.

M. bovis BCG = test: microbe, parasite or virus in culture; assay type: cell-based, Mycobacterium bovis BCG; conditions: Mycobacterium tuberculosis variant bovis BCG, BCG, 168 h; for MIC50: read-out: MIC50 M. bovis BCG; for MIC90: read-out: MIC90 M. bovis BCG
[4] = system: IL-1β production by LPS-stimulated RAW 264.7 macrophages; test: Inhibition of IL-1β production by LPS-stimulated macrophages (ELISA); assay type: cell-based, murine; conditions: for IC50: Mus musculus, RAW264.7, 24 h, read-out: IC50 IL-1β
Procedure: (§1) Murine RAW 264.7 macrophage cell line (American Type Culture Collection, Manassas, VA, USA), was cultured in Dulbecco’s modified Eagle’s medium (DMEM-F12) supplemented with 10% Fetal Bovine Serum (FBS) and gentamicin (50 µg/mL) in 5% CO2 atmosphere at 37 °C. For experiments, the cells were seeded in 96-well plates (1 × 10^5 cells/well) and incubated for 24 h at 37 °C. For macrophage stimulation, the cell cultures were treated with LPS (1 µg/mL) and incubated for additional 24 h in the presence or absence of the chalcone samples (samples 1–41) that were used at concentrations of 100, 20, 4 and 0.8 µg/mL. In some experiments, a nitric oxide (NO) inhibitor, L-NMMA (20 μg/mL), was used as a positive control of NO inhibition, and a non-steroidal anti-inflammatory drug indomethacin, known to inhibit production of prostaglandins, was used as a positive control of PGE2 inhibition.
(§2) The frozen culture supernatants samples were thawed and immediately analyzed using commercially available enzyme-linked immunosorbent assay (ELISA) kits to measure TNF-α, IL-1β (BD Biosciences) and PGE2 (R&D Systems, Minneapolis, MN, USA), according to the manufacturer’s instructions. Standard curves for each mediator were generated using reference cytokine concentrations supplied by the manufacturer. Nitric oxide (NO) generation was assessed by the Griess method to measure nitrites, which are stable breakdown NO products.

[5] = system: PGE2 production by LPS-stimulated RAW 264.7 macrophages; test: Inhibition of PGE2 production by LPS-stimulated macrophages (ELISA); assay type: cell-based, murine; conditions: Mus musculus, RAW264.7, 24 h, read-out: IC50 PGE2
Procedure: as §1, §2

M. tuberculosis H37Rv = test: microbe, parasite or virus in culture; assay type: cell-based, Mycobacterium tuberculosis; conditions: Mycobacterium tuberculosis
M. tuberculosis M299 = test: microbe, parasite or virus in culture; assay type: cell-based, Mycobacterium tuberculosis; conditions: for MIC50 / MIC90: Mycobacterium tuberculosis, M299, 120 h
[6] = system: M. tuberculosis strain H37Rv in RAW 264.7 macrophages; test: Intracellular growth of M. tuberculosis H37Rv in infected macrophages (CFU); assay type: cell-based, Mycobacterium tuberculosis; conditions: infected RAW 264.7, MOI 1:1, 4 days, Figure 3C; for MIC50: Mycobacterium tuberculosis, H37RV, 96 h
Procedure: (§3) RAW 264.7 macrophages were plated (1 × 10^5 cells/well) in antibiotic-free DMEM-F12 medium supplemented with 10% fetal bovine serum and incubated for 24 h. Prior to infection, mycobacterial suspensions were sonicated for 1 minute to disperse clumps and optical densities were adjusted to 0.1. The macrophage cultures were infected at a MOI of 1:1 (macrophage: bacterium). Phagocytosis was allowed to progress for 3 h. After 3 h, extracellular mycobacteria were removed by washing with PBS 1X and the infected cell monolayers were treated for 4 days with chalcone samples or rifampicin. Macrophage viability was monitored by LDH assay and was over 80% in all experiments. On day 4 after infection, cells were lysed cells with 1% saponin to release intracellular bacteria. Lysate aliquots were diluted 10-fold in PBS, plated in triplicates on 7H10 agar plates and incubated at 37 °C. After 21 days, total CFU were determined.

[7] = system: RAW 264.7 macrophages infected with M. tuberculosis H37Rv; test: Toxicity for infected macrophages, LDH assay; assay type: cell-based, murine; conditions: Mus musculus, RAW264.7, 96 h; infected RAW 264.7, 4 days treatment; Figure 3D
Procedure: Cytotoxic effects of chalcone samples on RAW 264.7 cell viability in cultures stimulated with LPS were determined using the LDH (lactate dehydrogenase) release assay as previously described. Cytoplasmic enzyme LDH release into cell culture supernatants was detected using a commercial LDH kit (Doles, GO, Brazil). Cell death was expressed as percentage of LDH release, which was calculated using the following formula: percentage of LDH release = 100 × (test LDH release − spontaneous release)/(maximum release − spontaneous release). The maximum release was determined following dissolution of cell monolayers using 1% (vol/vol) Triton X-100. The spontaneous release was determined in supernatants from cultures incubated in the presence of LPS and DMSO, used as a solvent for chalcone samples.
as §3

[8] = system: iNOS expression in RAW 264.7 macrophages; test: iNOS expression by western blot in LPS-stimulated macrophages; assay type: cell-based, murine; conditions: 20 µg/mL, LPS 1 µg/mL, 24 h
Procedure: RAW 264.7 macrophages were plated in Petri dishes (2 × 10^7 cells·mL^−1) and incubated for 24 h at 37 °C in 5% CO2 atmosphere. […] The resulted cellular monolayers were washed with PBS 1×, scraped and resuspended in PBS 1×, transferred and centrifuged to obtain cell pellets. The cells were lysed in buffer (10% SDS, 20% glycerol, 5% 2-mercaptoethanol, 2% bromophenol blue and 1 M Tris HCl, pH 6.8, containing protease inhibitors). Protein concentrations were estimated by Bradford method. For western blot analysis, cellular extract samples (60 µg) were submitted to 10% SDS–polyacrylamide gel electrophoresis under […] conditions and transferred to nitrocellulose membranes (Amersham Pharmacia Biotech, Uppsala, Sweden). After blocking with PBS-T (0.5% Tween-20) containing 2.5% (w/v) bovine serum albumin, the membranes were incubated with antibodies against iNOS (1:1000) and COX-2 (1:500) for 1 h at room temperature. After incubation period, the membranes were washed followed by treatment with horseradish peroxidase-conjugated secondary antibody. The resulting membranes were developed using diaminobenzidine/H2O2 as a substrate for peroxidase. In all electrophoresis experiments, a protein standard ladder (Full Range Rainbow-GE Healthcare, Piscataway, NJ, USA) was used to estimate proteins molecular size. Protein bands densitometric analysis was performed using ImageJ software for Windows (NIH, Bethesda, MD, USA). The value for stimulated condition (LPS- treated cells) was set as 1 and other conditions were recalculated correspondingly to allow ratio comparisons.

RAW 264.7 macrophages = test: Macrophage cytotoxicity, LDH release assay; assay type: cell-based, murine; conditions: LDH release
Procedure: as §4

[9] = Mus musculus, RAW264.7, 24 h, LPS (1 µg/mL)-stimulated RAW 264.7, 24 h, read-out: IC50 NO
[10] = RAW264.7, LPS (1 µg/mL)-stimulated RAW 264.7, 24 h, mean ± SD, n = 3
[11] = H37RV, 120 h, read-out: MIC50 M. tuberculosis H37Rv
[12] = Table 5, same values as M. tuberculosis H37Rv in Table 3, read-out: MIC50
[13] = Mus musculus, RAW264.7, 24 h, read-out: IC50 NO, LPS (1 µg/mL)-stimulated RAW 264.7, 24 h

SMILES | IC50 [1, 9] [µM] | IC50 [2, 10] [µM] | IC50 [3] [µM] | MIC50 (M. bovis BCG) [µM] | MIC90 (M. bovis BCG) [µM] | IC50 [4] [µM] | IC50 [5] [µM] | MIC90 (M. tuberculosis H37Rv; H37RV, 120 h) [µM] | MIC50 (M. tuberculosis H37Rv; [11]) [µM] | MIC50 (M. tuberculosis H37Rv; [12]) [µM] | MIC50 (M. tuberculosis M299) [µM] | MIC90 (M. tuberculosis M299) [µM] | MIC50 [6] [µM] | IC50 [7] [µM] | inhibition of iNOS expression [8] | IC50 [1, 13] [µM] | also measured
COc1ccc(C(=O)/C=C/c2ccc(F)cc2)cc1 [Chalcone 25] | 41.2 ± 4.6 | > 390 | > 390 | 15.8 ± 5.2 (≈ 4.05 µg/mL) | 228 ± 5.8 (≈ 58.5 µg/mL) | > 390 | 57.5 ± 2.1 | 366.1 ± 3.6 (≈ 93.8 µg/mL) | 25.1 ± 5.2 (≈ 6.43 µg/mL) | 25.1 ± 5.2 (≈ 6.43 µg/mL) | 18.5 ± 3.6 (≈ 4.74 µg/mL) | 366.9 ± 0.3 (≈ 94 µg/mL) | 49.1 ± 1.7 (≈ 12.6 µg/mL) | 264 ± 4.4 | – | – | –
O=C(/C=C/c1ccc(Cl)cc1)c1ccccc1Cl [Chalcone 33] | – | 166 ± 5.2 | 351 ± 5 | 45.7 ± 5.4 (≈ 12.7 µg/mL) | > 361 | 287 ± 3.6 | 75.1 ± 3.5 | 356 ± 4.9 (≈ 98.6 µg/mL) | 36.9 ± 4.5 (≈ 10.2 µg/mL) | 36.9 ± 4.5 (≈ 10.2 µg/mL) | – | – | 248 ± 3.7 (≈ 68.7 µg/mL) | 271.7 ± 2.7 | almost completely inhibit | – | –
CN(C)c1ccc(/C=C/C(=O)c2ccccc2)cc1 [Chalcone 4] | – | 66.9 ± 4.3 | 348 ± 5.1 | 14.3 ± 5.8 (≈ 3.59 µg/mL) | 137 ± 7.9 (≈ 34.5 µg/mL) | 116 ± 5.5 | 61.2 ± 0.5 | 320 ± 4.8 (≈ 80.5 µg/mL) | 19.7 ± 1.9 (≈ 4.95 µg/mL) | 19.7 ± 1.9 (≈ 4.95 µg/mL) | 20.1 ± 1 (≈ 5.05 µg/mL) | 351.5 ± 1.8 (≈ 88.3 µg/mL) | 4.2 ± 0.3 (≈ 1.06 µg/mL) | 374 ± 6.3 | almost completely inhibit | < 21 | IC50 ([1]; LPS (1 µg/mL)-stimulated RAW 264.7, 24 h, read-out: IC50 NO): 12 ± 2.2 µM; inhibition of TNF-α ([2]; LPS-stimulated RAW 264.7): strongly inhibit; inhibition of IL-1β ([4]; LPS-stimulated RAW 264.7): potent inhibitors; MIC50 intracellular M. tuberculosis H37Rv [6]: 4.2 ± 0.3 µM (≈ 1.06 µg/mL)
O=C(/C=C/c1ccc(Cl)cc1)c1ccc(Br)cc1 [Chalcone 10] | 68.9 ± 4.3 | > 311 | 113.4 ± 0.5 | 22.3 ± 6.3 (≈ 7.17 µg/mL) | 288 ± 3.2 (≈ 92.6 µg/mL) | – | – | – | – | – | – | – | – | – | – | – | cytotoxicity profile (RAW 264.7 macrophages): worst cytotoxicity profiles
O=C(/C=C/c1ccccc1Cl)c1ccc(Br)cc1 [Chalcone 15] | – | – | 256 ± 3.8 | 13.8 ± 4.4 (≈ 4.44 µg/mL) | 265 ± 4.5 (≈ 85.3 µg/mL) | > 311 | 32.8 ± 3.7 | 288 ± 5.5 (≈ 92.6 µg/mL) | 17.1 ± 3.8 (≈ 5.5 µg/mL) | 17.1 ± 3.8 (≈ 5.5 µg/mL) | > 311 | > 311 | 242 ± 4.4 (≈ 77.9 µg/mL) | 214 ± 2.5 | – | 36.7 | IC50 ([2]; RAW264.7, 24 h): > 311 µM; activity against M299 compared with H37Rv (M. tuberculosis M299): significantly less potent
O=C(/C=C/c1ccc(F)cc1)c1ccc(Br)cc1 [Chalcone 9] | > 328 | > 328 | > 328 | 35.8 ± 3.9 (≈ 10.9 µg/mL) | 309 ± 5.3 (≈ 94.2 µg/mL) | – | – | 252 ± 2.7 (≈ 76.9 µg/mL) | 24.4 ± 4.5 (≈ 7.45 µg/mL) | 24.4 ± 4.5 (≈ 7.45 µg/mL) | 53.6 ± 1.9 (≈ 16.3 µg/mL) | 313 ± 1.4 (≈ 95.5 µg/mL) | 12 ± 1.1 (≈ 3.66 µg/mL) | > 321 | – | – | –

Source: PMC6272185 (Molecules, 2015)
